# From publication PMC12049414 (Nature Communications, 2025)
# Biological target: T1, human vesicular polyamine transporter (hVPAT) (Homo sapiens, UniProt Q6NT16)
# T1 sequence (Q6NT16 1-456): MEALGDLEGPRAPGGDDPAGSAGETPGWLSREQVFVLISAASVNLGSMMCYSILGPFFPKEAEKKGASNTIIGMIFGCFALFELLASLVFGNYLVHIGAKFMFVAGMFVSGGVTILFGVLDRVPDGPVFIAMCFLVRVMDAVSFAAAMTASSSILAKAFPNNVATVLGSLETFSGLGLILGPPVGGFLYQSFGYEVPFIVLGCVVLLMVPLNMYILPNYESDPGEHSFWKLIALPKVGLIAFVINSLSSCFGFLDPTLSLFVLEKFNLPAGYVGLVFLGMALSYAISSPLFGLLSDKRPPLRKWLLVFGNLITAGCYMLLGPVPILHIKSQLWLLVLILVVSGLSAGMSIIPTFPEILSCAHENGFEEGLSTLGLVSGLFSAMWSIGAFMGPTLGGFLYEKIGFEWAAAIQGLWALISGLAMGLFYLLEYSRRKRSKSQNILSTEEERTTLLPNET
# Assay: cryo-EM structure at […] Å
# Assay type: biochemical
structure (smiles),measurement,value
"COc1cc2c(cc1OC)C1CC(=O)C(CC(C)C)CN1CC2 (stereo not shown) [TBZ, tetrabenazine]",Ki,2 µM
